The text below walks through data of patent US12419848B2, “Treatment of hyperinflammatory syndrome” (priority 2020, dated 2025).

Usually EC50 stands for the midpoint of the concentration-response curve.

In one assay the target is T1, P2X7R (Homo sapiens, UniProt Q99572).
T1 sequence (Q99572 1-595): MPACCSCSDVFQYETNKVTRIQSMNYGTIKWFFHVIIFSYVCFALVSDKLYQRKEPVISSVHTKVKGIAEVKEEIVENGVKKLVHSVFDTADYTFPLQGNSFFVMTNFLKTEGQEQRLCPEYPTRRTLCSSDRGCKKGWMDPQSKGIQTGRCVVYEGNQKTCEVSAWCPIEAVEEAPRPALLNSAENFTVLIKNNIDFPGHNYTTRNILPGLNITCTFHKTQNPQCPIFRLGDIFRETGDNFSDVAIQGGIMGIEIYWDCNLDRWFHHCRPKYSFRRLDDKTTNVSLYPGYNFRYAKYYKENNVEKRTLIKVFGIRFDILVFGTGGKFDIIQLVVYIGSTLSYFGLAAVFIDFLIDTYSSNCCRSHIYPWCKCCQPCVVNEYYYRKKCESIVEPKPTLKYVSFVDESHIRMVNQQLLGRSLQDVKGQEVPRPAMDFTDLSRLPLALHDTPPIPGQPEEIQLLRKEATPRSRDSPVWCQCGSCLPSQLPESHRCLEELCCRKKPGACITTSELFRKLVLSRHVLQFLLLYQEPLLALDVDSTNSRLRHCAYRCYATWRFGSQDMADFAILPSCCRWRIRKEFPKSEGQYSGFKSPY
To be noted: read-out: EC50 to activate P2X7R; cited from earlier work.

For a further assay, the target named is P1 receptors. The settings on record: cited from earlier work.
The subject of another assay is ulcerative colitis. Description: Example 27: ulcerative colitis. Type of assay: in vivo, human. To be noted: sublingual 4×100 mg/d, after 3 days.
Assay [1] deals with idiopathic Parkinson's disease. The settings on record: sublingual 4×100 mg/d, after 1 month.
The test system of a further assay is myasthenia gravis. Description: Example 24: myasthenia gravis. Type of assay: in vivo, human. To be noted: sublingual 4×100 mg/d. How it is done:
A person was diagnosed having myasthenia gravis. They suffered from muscle weakness of the arms and hand after physical activity. The diagnosis was confirmed with EMG and positive test for antibodies against acetylcholine receptor (AChR). They were treated with oral anticholinesterase drug (mestinon) 4×60 mg/d. […] The treatment was continued for 2 weeks.

Another assay deals with acute lumbago. Description: Example 32: acute lumbago. To be noted: sublingual 4×100 mg/d, after 30 minutes. Type of assay: in vivo, human.
The test system of assay [2] is inflammatory bowel disease with perianal fistulae. Description: Example 28: inflammatory bowel disease with perianal fistulae. Type of assay: in vivo. To be noted: dog, 4×100 mg/d applied into the largest fistula, after 1 week.
Another assay concerns ischaemic cardiomyopathy. Description: Example 31: ischaemic cardiomyopathy. Type of assay: in vivo, human.
The next assay has as its system diabetic polyneuropathy. Description: Example 23: diabetic polyneuropathy. The class given is in vivo, human.
The next assay relates to COPD. Description: Example 25: COPD. Type of assay: in vivo, human. The settings on record: sublingual 4×100 mg/d, after 3 months; before 60%.
Another assay deals with SLE peritonitis. Description: Example 33: systemic lupus erythematosus. The class given is in vivo, human.
For the next assay, the system named is Alzheimer's disease. Description: Example 19: Alzheimer's dementia. The settings on record: sublingual 4×100 mg/d, after 3 months; before 15. Type of assay: in vivo, human.

For `Nc1ncnc2c1ncn2[C@@H]1O[C@H](COP(=O)(O)OP(=O)(O)OP(=O)(O)O)[C@@H](O)[C@H]1O` [ATP], the EC50 at P2X7R is above 1000 µM.

Consider `Nc1ncnc2c1ncn2[C@@H]1O[C@H](CO)[C@@H](O)[C@H]1O` [adenosine], for which the “EC50 (extracellular concentration for half maximal effect)” value at P1 receptors is on record as “nanomolar range”.

Regarding `CCN(CC)CC(=O)Nc1c(C)cccc1C` [lidocaine base, lidocaine], in the assay with ulcerative colitis, the symptoms entry was “completely disappeared”. In addition, in assay [1], the tendency to fall entry is “gradually improved” and the tremor entry is “almost disappeared”. In the assay on myasthenia gravis, the “influenza A viral infection symptoms” value is given as “disappeared almost completely”; the “time to significant improvement of muscle weakness of arms and hand” value is at most 4 h. Besides, the symptoms disappeared with acute lumbago came out at 95%. For the same compound, in assay [2], the “oozing opaque fluid secretion and bad odour” value is “had disappeared”. For the same compound, the chest pain episodes result in the assay on ischaemic cardiomyopathy (after 3 weeks) is recorded as “significantly diminished”. In addition, in the assay with ischaemic cardiomyopathy (sublingual 4×100 mg/d, after 3 months, before 31%), the “cardiac ejection fraction (transthoracic echocardiographic)” value stood at 42%. Further, the “muscle strength of hands” value in the assay with diabetic polyneuropathy (after 3 months) is recorded as “improved significantly”. Further, the “tingling feelings in hands and feet” value in the assay on diabetic polyneuropathy (sublingual 4×100 mg/d, after a few days) was “disappeared completely”. This compound registered an FEV1 with COPD of 84%. In the assay on SLE peritonitis (after 2 weeks), the abdominal distension result was “disappeared completely”. The clinical symptoms entry in the assay on SLE peritonitis (sublingual 4×100 mg/d) is “disappeared in the course of 6 days”. In addition, the “MMSE Test total score” value with Alzheimer's disease is listed as 23.
